Measurements: the NIST ThermoML archive (doi:10.1016/j.jct.2016.10.023)

Assay: xn = mol fraction of the nth substance listed
Details: Constant-volume piezometry

CCCCC [pentane] + CCCO
Details | mass density [kg/m3]
513.15 K, 5373 kPa, Fluid (supercritical or subcritical phases), x1 = 0.5 | 200.49
513.15 K, 5432 kPa, Fluid (supercritical or subcritical phases), x1 = 0.5 | 210.33
513.15 K, 5454 kPa, Fluid (supercritical or subcritical phases), x1 = 0.9 | 202.47
513.15 K, 5473 kPa, Fluid (supercritical or subcritical phases), x1 = 0.8 | 193.25
513.15 K, 5506 kPa, Fluid (supercritical or subcritical phases), x1 = 0.5 | 224.16
513.15 K, 5598 kPa, Fluid (supercritical or subcritical phases), x1 = 0.5 | 241.62
513.15 K, 5618 kPa, Fluid (supercritical or subcritical phases), x1 = 0.5 | 250.82
513.15 K, 5669 kPa, Fluid (supercritical or subcritical phases), x1 = 0.9 | 220.79
513.15 K, 5677 kPa, Fluid (supercritical or subcritical phases), x1 = 0.5 | 259.87
513.15 K, 5710 kPa, Fluid (supercritical or subcritical phases), x1 = 0.8 | 213.96
513.15 K, 5746 kPa, Fluid (supercritical or subcritical phases), x1 = 0.5 | 270.69
513.15 K, 5776 kPa, Fluid (supercritical or subcritical phases), x1 = 0.8 | 219.73
513.15 K, 5792 kPa, Liquid, x1 = 0.2 | 418.94
513.15 K, 5837 kPa, Fluid (supercritical or subcritical phases), x1 = 0.9 | 233.18
513.15 K, 5858 kPa, Fluid (supercritical or subcritical phases), x1 = 0.5 | 282.52
513.15 K, 5880 kPa, Fluid (supercritical or subcritical phases), x1 = 0.9 | 236.64
513.15 K, 5929 kPa, Fluid (supercritical or subcritical phases), x1 = 0.9 | 241.05
513.15 K, 5974 kPa, Fluid (supercritical or subcritical phases), x1 = 0.9 | 244.36
513.15 K, 5983 kPa, Fluid (supercritical or subcritical phases), x1 = 0.8 | 234.82
513.15 K, 6090 kPa, Fluid (supercritical or subcritical phases), x1 = 0.5 | 298.82
513.15 K, 6119 kPa, Fluid (supercritical or subcritical phases), x1 = 0.8 | 245.46
513.15 K, 6286 kPa, Fluid (supercritical or subcritical phases), x1 = 0.8 | 258.7
513.15 K, 6470 kPa, Fluid (supercritical or subcritical phases), x1 = 0.5 | 320.16
513.15 K, 6531 kPa, Fluid (supercritical or subcritical phases), x1 = 0.8 | 272.67
513.15 K, 6531 kPa, Fluid (supercritical or subcritical phases), x1 = 0.9 | 282.15
513.15 K, 6559 kPa, Fluid (supercritical or subcritical phases), x1 = 0.5 | 325.44
513.15 K, 6787 kPa, Fluid (supercritical or subcritical phases), x1 = 0.8 | 288.53
513.15 K, 6884 kPa, Fluid (supercritical or subcritical phases), x1 = 0.9 | 301.84
513.15 K, 6962 kPa, Fluid (supercritical or subcritical phases), x1 = 0.5 | 344.73
513.15 K, 7033 kPa, Fluid (supercritical or subcritical phases), x1 = 0.8 | 299.35
513.15 K, 7191 kPa, Fluid (supercritical or subcritical phases), x1 = 0.9 | 312.49
513.15 K, 7508 kPa, Fluid (supercritical or subcritical phases), x1 = 0.8 | 315.53
513.15 K, 7785 kPa, Fluid (supercritical or subcritical phases), x1 = 0.5 | 373.08
513.15 K, 7943 kPa, Fluid (supercritical or subcritical phases), x1 = 0.9 | 334.21
513.15 K, 8099 kPa, Fluid (supercritical or subcritical phases), x1 = 0.8 | 334.03
513.15 K, 8570 kPa, Fluid (supercritical or subcritical phases), x1 = 0.8 | 345.56
513.15 K, 8766 kPa, Liquid, x1 = 0.2 | 470.65
513.15 K, 8986 kPa, Fluid (supercritical or subcritical phases), x1 = 0.5 | 398.35
513.15 K, 9031 kPa, Fluid (supercritical or subcritical phases), x1 = 0.9 | 354.32
513.15 K, 9551 kPa, Fluid (supercritical or subcritical phases), x1 = 0.8 | 362.13
513.15 K, 10333 kPa, Fluid (supercritical or subcritical phases), x1 = 0.5 | 417.46
513.15 K, 12509 kPa, Fluid (supercritical or subcritical phases), x1 = 0.5 | 441.21
513.15 K, 13550 kPa, Fluid (supercritical or subcritical phases), x1 = 0.2 | 509.9
513.15 K, 13550 kPa, Liquid, x1 = 0.2 | 509.9
513.15 K, 13634 kPa, Fluid (supercritical or subcritical phases), x1 = 0.5 | 451.54
513.15 K, 13786 kPa, Fluid (supercritical or subcritical phases), x1 = 0.9 | 407.53
513.15 K, 14551 kPa, Fluid (supercritical or subcritical phases), x1 = 0.8 | 418.46
513.15 K, 16655 kPa, Fluid (supercritical or subcritical phases), x1 = 0.5 | 468.45
513.15 K, 22117 kPa, Liquid, x1 = 0.2 | 547.38
513.15 K, 24001 kPa, Fluid (supercritical or subcritical phases), x1 = 0.8 | 467
513.15 K, 30101 kPa, Fluid (supercritical or subcritical phases), x1 = 0.5 | 519.68
513.15 K, 33469 kPa, Fluid (supercritical or subcritical phases), x1 = 0.8 | 496.43
513.15 K, 35193 kPa, Liquid, x1 = 0.2 | 581.71
513.15 K, 42801 kPa, Liquid, x1 = 0.2 | 595.3
514.15 K, 4473 kPa, Gas, x1 = 0.2 | 150.41
514.15 K, 4778 kPa, Liquid, x1 = 0.2 | 341.42
514.15 K, 4795 kPa, Liquid, x1 = 0.2 | 350.74
515.15 K, 4522 kPa, Gas, x1 = 0.2 | 150.4
515.15 K, 4645 kPa, Fluid (supercritical or subcritical phases), x1 = 0.2 | 175.68
515.15 K, 4818 kPa, Fluid (supercritical or subcritical phases), x1 = 0.2 | 318.9
516.15 K, 4838 kPa, Fluid (supercritical or subcritical phases), x1 = 0.2 | 272.45
516.15 K, 4852 kPa, Fluid (supercritical or subcritical phases), x1 = 0.2 | 290.64
516.15 K, 4872 kPa, Fluid (supercritical or subcritical phases), x1 = 0.2 | 306.93
516.15 K, 4877 kPa, Fluid (supercritical or subcritical phases), x1 = 0.2 | 311.17
516.15 K, 4909 kPa, Fluid (supercritical or subcritical phases), x1 = 0.2 | 318.89
517.15 K, 4912 kPa, Fluid (supercritical or subcritical phases), x1 = 0.2 | 272.44
517.15 K, 4958 kPa, Fluid (supercritical or subcritical phases), x1 = 0.2 | 306.92

Liquid, x1 = 0.2
Details | mass density [kg/m3]
513.45 K | 344.22
513.65 K | 341.43
514.95 K | 318.91
515.15 K | 311.18
515.55 K | 306.94
515.95 K | 290.64
516.15 K | 272.45
